# From patent US20210052616A1, “ANTHRACYCLINE ENCAPSULATED WITH A POLYSACCHARIDE FOR USE IN THE TREATMENT OF TUMOURS” (NANOVELOS S.A, priority 2018, published 2021)
# Assays:
# Format in all cases: cell-based
# Conditions in all cases: 24 h
# [1] = tested on: A2780; test: MTT cytotoxicity test, A2780
# Text: (§1) In this test, […] present in the cells converts the soluble tetrazolium salt (3-4,5-dimethylthiazol-2-yl)-2,5-diphenyltetrazolium bromide) into a reduced form. The reaction yields water-insoluble purple crystalline formazan. The number of crystals formed depends on the enzyme activity so that it is directly proportional to the number of viable cells in the sample. Spectrophotometric measurement requires the use of an organic solvent to dissolve the crystals obtained (isopropanol). The change in colour intensity is measured by spectrophotometry at 570 nm wavelength. The test was performed for a number of dilutions (9) of nanoparticle solutions containing the tested anthracycline. The baseline concentration of nanoparticles for MTT tests was 2.5 mg of nanoparticles/ml. […] The study was also performed for drug-free nanoparticles (the carrier itself was obtained similarly to the nanoparticles with the drug). Cells not exposed to toxic substances were used as a control for toxicity studies.
# (§2) After reaching 85-90% confluence, the cells were trypsinised using a 0.25% trypsin solution. The cells were then centrifuged (1200 rpm, 5 min.) and suspended in a culture medium suitable for a particular cell line. […] The cells were plated at a concentration of 1000 cells/100 μl of medium per culture well (96-well plates). The prepared plates were incubated (37° C./5% CO2/22 h to 26 h). Subsequently, the culture medium was replaced with a fresh one (100 μl) containing the appropriate concentration of the tested nanoparticles and set aside for 24 h (37° C./5% CO2). After the lapse of the test time, the medium was removed and replaced with 50 μl of an MTT reagent solution at a concentration of 1 mg/ml. The plate was incubated for 2 hours (37° C./5% CO2). Subsequently, the MTT solution was removed, and 100 μl of isopropanol was added. […] The mean value of absorbance read OD570 of the cells not exposed to a toxic agent (control) should be above 0.7 [see literature item 206].
# (§3) A decrease in the number of viable cells causes a decrease in metabolic activity in the sample. This reduction directly correlates with the amount of blue and purple formazan formed, monitored basing on the optical density at 570 nm. The following equation (C.1) is used to calculate viability reduction compared to control:
# (§4) where: • OD570e is the mean value of the measured absorbance of the test samples; • OD570b is the mean value of the measured absorbance of the control.
# (§5) The results obtained were statistically analysed using the Dixon Q test.
# [2] = tested on: A549; test: MTT cytotoxicity test, A549
# Text: as §1, §2, §3, §4, §5
# [3] = tested on: ACHN; test: MTT cytotoxicity test, ACHN
# Text: as §1, §2, §3, §4, §5
# [4] = tested on: AU565; test: MTT cytotoxicity test, AU565
# Text: as §1, §2, §3, §4, §5
# [5] = tested on: COLO 205; test: MTT cytotoxicity test, COLO 205
# Text: as §1, §2, §3, §4, §5
# [6] = tested on: OVCAR-3; test: MTT cytotoxicity test, OVCAR-3
# Text: as §1, §2, §3, §4, §5
# [7] = tested on: PANC-1; test: MTT cytotoxicity test, PANC-1
# Text: as §1, §2, §3, §4, §5
smiles,measurement,setting,value
"COc1cccc2c1C(=O)c1c(O)c3c(c(O)c1C2=O)C[C@@](O)(C(=O)CO)C[C@@H]3O[C@H]1C[C@H](N)[C@@H](O)[C@H](C)O1 [Epi, epirubicin]",Average viability,"[1]; A2780, 1.25E+04 ng/ml NPs (pure drug equimolar)",90.784%
same,Average viability,"[1]; A2780, 1.25E+05 ng/ml NPs (pure drug equimolar)",69.996%
same,Average viability,"[1]; A2780, 1.25E+06 ng/ml NPs (pure drug equimolar)",14.869%
same,Average viability,"[1]; A2780, 2.50E+04 ng/ml NPs (pure drug equimolar)",89.24%
same,Average viability,"[1]; A2780, 2.50E+05 ng/ml NPs (pure drug equimolar)",58.252%
same,Average viability,"[1]; A2780, 2.50E+06 ng/ml NPs (pure drug equimolar)",3.102%
same,Average viability,"[1]; A2780, 5.00E+03 ng/ml NPs (pure drug equimolar)",95.203%
same,Average viability,"[1]; A2780, 5.00E+04 ng/ml NPs (pure drug equimolar)",83.629%
same,Average viability,"[1]; A2780, 5.00E+05 ng/ml NPs (pure drug equimolar)",41.752%
same,Average viability,"[2]; A549, 1.25E+04 ng/ml NPs (pure drug equimolar)",95.631%
same,Average viability,"[2]; A549, 1.25E+05 ng/ml NPs (pure drug equimolar)",83.913%
same,Average viability,"[2]; A549, 1.25E+06 ng/ml NPs (pure drug equimolar)",29.508%
same,Average viability,"[2]; A549, 2.50E+04 ng/ml NPs (pure drug equimolar)",88.608%
same,Average viability,"[2]; A549, 2.50E+05 ng/ml NPs (pure drug equimolar)",75.153%
same,Average viability,"[2]; A549, 2.50E+06 ng/ml NPs (pure drug equimolar)",23.423%
same,Average viability,"[2]; A549, 5.00E+04 ng/ml NPs (pure drug equimolar)",74.693%
same,Average viability,[3]; 1.25E+04 ng/ml NPs (pure drug equimolar),65.301%
same,Average viability,[3]; 1.25E+05 ng/ml NPs (pure drug equimolar),63.237%
same,Average viability,[3]; 1.25E+06 ng/ml NPs (pure drug equimolar),46.66%
same,Average viability,[3]; 2.50E+04 ng/ml NPs (pure drug equimolar),63.713%
same,Average viability,[3]; 2.50E+05 ng/ml NPs (pure drug equimolar),60.112%
same,Average viability,[3]; 2.50E+06 ng/ml NPs (pure drug equimolar),32.352%
same,Average viability,[3]; 5.00E+03 ng/ml NPs (pure drug equimolar),81.178%
same,Average viability,[3]; 5.00E+04 ng/ml NPs (pure drug equimolar),59.828%
same,Average viability,[3]; 5.00E+05 ng/ml NPs (pure drug equimolar),50.916%
same,Average viability,"[4]; AU565, 1.25E+04 ng/ml NPs (pure drug equimolar)",66.48%
same,Average viability,"[4]; AU565, 1.25E+05 ng/ml NPs (pure drug equimolar)",48.38%
same,Average viability,"[4]; AU565, 2.50E+04 ng/ml NPs (pure drug equimolar)",66.439%
same,Average viability,"[4]; AU565, 2.50E+05 ng/ml NPs (pure drug equimolar)",29.222%
same,Average viability,"[4]; AU565, 2.50E+06 ng/ml NPs (pure drug equimolar)",1.822%
same,Average viability,"[4]; AU565, 5.00E+03 ng/ml NPs (pure drug equimolar)",84.738%
same,Average viability,"[4]; AU565, 5.00E+04 ng/ml NPs (pure drug equimolar)",48.052%
same,Average viability,"[4]; AU565, 5.00E+05 ng/ml NPs (pure drug equimolar)",11.723%
same,Average viability,"[5]; Colo205, 1.25E+04 ng/ml NPs (pure drug equimolar)",63.431%
same,Average viability,"[5]; Colo205, 1.25E+05 ng/ml NPs (pure drug equimolar)",55.748%
same,Average viability,"[5]; Colo205, 1.25E+06 ng/ml NPs (pure drug equimolar)",5.063%
same,Average viability,"[5]; Colo205, 2.50E+04 ng/ml NPs (pure drug equimolar)",66.212%
same,Average viability,"[5]; Colo205, 2.50E+05 ng/ml NPs (pure drug equimolar)",49.549%
same,Average viability,"[5]; Colo205, 2.50E+06 ng/ml NPs (pure drug equimolar)",2.239%
same,Average viability,"[5]; Colo205, 5.00E+03 ng/ml NPs (pure drug equimolar)",83.936%
same,Average viability,"[5]; Colo205, 5.00E+04 ng/ml NPs (pure drug equimolar)",61.427%
same,Average viability,"[5]; Colo205, 5.00E+05 ng/ml NPs (pure drug equimolar)",23.946%
same,Average viability,"[6]; OVCAR3, 1.25E+05 ng/ml NPs (pure drug equimolar)",91.668%
same,Average viability,"[6]; OVCAR3, 1.25E+06 ng/ml NPs (pure drug equimolar)",58.803%
same,Average viability,"[6]; OVCAR3, 2.50E+04 ng/ml NPs (pure drug equimolar)",99.208%
same,Average viability,"[6]; OVCAR3, 2.50E+05 ng/ml NPs (pure drug equimolar)",88.222%
same,Average viability,"[6]; OVCAR3, 2.50E+06 ng/ml NPs (pure drug equimolar)",33.266%
same,Average viability,"[6]; OVCAR3, 5.00E+04 ng/ml NPs (pure drug equimolar)",92.151%
same,Average viability,"[6]; OVCAR3, 5.00E+05 ng/ml NPs (pure drug equimolar)",75.986%
same,Average viability,"[7]; PANC1, 1.25E+04 ng/ml NPs (pure drug equimolar)",94.813%
same,Average viability,"[7]; PANC1, 1.25E+05 ng/ml NPs (pure drug equimolar)",82.872%
same,Average viability,"[7]; PANC1, 1.25E+06 ng/ml NPs (pure drug equimolar)",27.965%
same,Average viability,"[7]; PANC1, 2.50E+04 ng/ml NPs (pure drug equimolar)",99.155%
same,Average viability,"[7]; PANC1, 2.50E+05 ng/ml NPs (pure drug equimolar)",79.499%
same,Average viability,"[7]; PANC1, 2.50E+06 ng/ml NPs (pure drug equimolar)",5.339%
same,Average viability,"[7]; PANC1, 5.00E+03 ng/ml NPs (pure drug equimolar)",97.954%
same,Average viability,"[7]; PANC1, 5.00E+05 ng/ml NPs (pure drug equimolar)",54.929%
